Drawing on US20130303509A1, “NAMPT INHIBITORS” (AbbVie Inc., priority 2012, published 2013), this text covers IC50 for 33 molecules.

A word on the IC50: it is the concentration needed to halve the response being measured.

The experiment concerns PC3 cells. The experiment can be described thus: NAMPT Cell Proliferation Assay. It is filed as cell-based. Conditions: Homo sapiens, PC-3, 120 h, 5 days incubation, cell viability by Cell Titer Glo. In outline: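 Five-day CellTiter-Glo viability readout in PC3 cells grown in RPMI/10% heat-inactivated FBS. Compounds added after overnight attachment as a 10-fold dilution series, […]. Percent inhibition fitted to sigmoidal dose-response to derive IC50.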
On the technique in general: Cellular ATP, detected with luciferase, serves as a proxy for viable cell number.

The molecule `Cc1ccc(C)c(C(=O)N2CCC(c3ccc(NC(=O)C4CN(c5cccnn5)C4)cc3)CC2)c1` [Example 359, N-{4-[1-(2,5-dimethylbenzoyl)piperidin-4-yl]phenyl}-1-(pyridazin-3-yl)azetidine-3-carboxamide] showed an IC50 of 1.77 nM. `Cc1ccc(C(=O)N2CCC(c3ccc(NC(=O)C4CN(c5cccnn5)C4)cc3)CC2)cc1C` [Example 360, N-{4-[1-(3,4-dimethylbenzoyl)piperidin-4-yl]phenyl}-1-(pyridazin-3-yl)azetidine-3-carboxamide] displayed an IC50 of 2.35 nM. Consider `Cc1cc(C)cc(C(=O)N2CCC(c3ccc(NC(=O)C4CN(c5cccnn5)C4)cc3)CC2)c1` [Example 361, N-{4-[1-(3,5-dimethylbenzoyl)piperidin-4-yl]phenyl}-1-(pyridazin-3-yl)azetidine-3-carboxamide], for which inhibition was half-maximal at 2.77 nM (IC50).

On to `O=C(Nc1ccc(C2CCN(C(=O)c3ccc(Cl)cc3Cl)CC2)cc1)C1CN(c2cccnn2)C1` [Example 362, N-{4-[1-(2,4-dichlorobenzoyl)piperidin-4-yl]phenyl}-1-(pyridazin-3-yl)azetidine-3-carboxamide], for which the concentration for half-maximal inhibition (IC50) was determined as 2.61 nM. In turn, `O=C(Nc1ccc(C2CCN(C(=O)c3cc(Cl)ccc3Cl)CC2)cc1)C1CN(c2cccnn2)C1` [Example 363, N-{4-[1-(2,5-dichlorobenzoyl)piperidin-4-yl]phenyl}-1-(pyridazin-3-yl)azetidine-3-carboxamide] came in with an IC50 of 5.6 nM.

Molecule `O=C(Nc1ccc(C2CCN(C(=O)c3ccc(Cl)c(Cl)c3)CC2)cc1)C1CN(c2cccnn2)C1` [Example 364, N-{4-[1-(3,4-dichlorobenzoyl)piperidin-4-yl]phenyl}-1-(pyridazin-3-yl)azetidine-3-carboxamide] returned an IC50 of 8.63 nM.

In turn, `O=C(Nc1ccc(C2CCN(C(=O)c3cc(Cl)cc(Cl)c3)CC2)cc1)C1CN(c2cccnn2)C1` [Example 365, N-{4-[1-(3,5-dichlorobenzoyl)piperidin-4-yl]phenyl}-1-(pyridazin-3-yl)azetidine-3-carboxamide] registered an IC50 of 7.84 nM. `O=C(Nc1ccc(C2CCN(C(=O)Cc3ccccc3F)CC2)cc1)C1CN(c2cccnn2)C1` [Example 366, N-(4-{1-[(2-fluorophenyl)acetyl]piperidin-4-yl}phenyl)-1-(pyridazin-3-yl)azetidine-3-carboxamide] displayed an IC50 of 6.57 nM. In the case of `O=C(Nc1ccc(C2CCN(C(=O)Cc3cccc(F)c3)CC2)cc1)C1CN(c2cccnn2)C1` [Example 367, N-(4-{1-[(3-fluorophenyl)acetyl]piperidin-4-yl}phenyl)-1-(pyridazin-3-yl)azetidine-3-carboxamide], the midpoint of inhibition, the IC50, lay at 6.38 nM.

The molecule `O=C(Nc1ccc(C2CCN(C(=O)Cc3ccc(F)cc3)CC2)cc1)C1CN(c2cccnn2)C1` [Example 368, N-(4-{1-[(4-fluorophenyl)acetyl]piperidin-4-yl}phenyl)-1-(pyridazin-3-yl)azetidine-3-carboxamide] registered an IC50 of 7.7 nM. Regarding `O=C(Nc1ccc(C2CCN(C(=O)Cc3ccccc3Cl)CC2)cc1)C1CN(c2cccnn2)C1` [Example 369, N-(4-{1-[(2-chlorophenyl)acetyl]piperidin-4-yl}phenyl)-1-(pyridazin-3-yl)azetidine-3-carboxamide], the IC50 was 2.14 nM. In turn, `O=C(Nc1ccc(C2CCN(C(=O)Cc3ccc(Cl)cc3)CC2)cc1)C1CN(c2cccnn2)C1` [Example 370, N-(4-{1-[(4-chlorophenyl)acetyl]piperidin-4-yl}phenyl)-1-(pyridazin-3-yl)azetidine-3-carboxamide] came in with a half-inhibitory concentration (IC50) of 8.79 nM.

In turn, `O=C(Nc1ccc(C2CCN(C(=O)Cc3ccc(C(F)(F)F)cc3)CC2)cc1)C1CN(c2cccnn2)C1` [Example 371, 1-(pyridazin-3-yl)-N-[4-(1-{[4-(trifluoromethyl)phenyl]acetyl}piperidin-4-yl)phenyl]azetidine-3-carboxamide] showed a half-maximal inhibitory concentration (IC50) of 8.94 nM. `Cc1cc(C)cc(CC(=O)N2CCC(c3ccc(NC(=O)C4CN(c5cccnn5)C4)cc3)CC2)c1` [Example 372, N-(4-{1-[(3,5-dimethylphenyl)acetyl]piperidin-4-yl}phenyl)-1-(pyridazin-3-yl)azetidine-3-carboxamide] came in with an IC50 of 7.06 nM. Regarding `O=C(Nc1ccc(C2CCN(C(=O)Cc3cc(F)ccc3F)CC2)cc1)C1CN(c2cccnn2)C1` [Example 373, N-(4-{1-[(2,5-difluorophenyl)acetyl]piperidin-4-yl}phenyl)-1-(pyridazin-3-yl)azetidine-3-carboxamide], 5.95 nM corresponded to half-maximal inhibition (IC50). The result for `O=C(Nc1ccc(C2CCN(C(=O)Cc3ccc(Cl)c(Cl)c3)CC2)cc1)C1CN(c2cccnn2)C1` [Example 374, N-(4-{1-[(3,4-dichlorophenyl)acetyl]piperidin-4-yl}phenyl)-1-(pyridazin-3-yl)azetidine-3-carboxamide] reads 6.32 nM; that for `O=C(Nc1ccc(C2CCN(C(=O)c3ccoc3)CC2)cc1)C1CN(c2cccnn2)C1` [Example 375, N-{4-[1-(furan-3-ylcarbonyl)piperidin-4-yl]phenyl}-1-(pyridazin-3-yl)azetidine-3-carboxamide], 0.87 nM. In the case of `O=C(Nc1ccc(C2CCN(C(=O)c3cccs3)CC2)cc1)C1CN(c2cccnn2)C1` [Example 376, 1-(pyridazin-3-yl)-N-{4-[1-(thiophen-2-ylcarbonyl)piperidin-4-yl]phenyl}azetidine-3-carboxamide] it was 0.62 nM.

For the molecule `Cc1ccc(C(=O)N2CCC(c3ccc(NC(=O)C4CN(c5cccnn5)C4)cc3)CC2)s1` [Example 377, N-(4-{1-[(5-methylthiophen-2-yl)carbonyl]piperidin-4-yl}phenyl)-1-(pyridazin-3-yl)azetidine-3-carboxamide], the concentration for half-maximal inhibition (IC50) was determined as 2.13 nM. Molecule `Cc1cnc(C(=O)N2CCC(c3ccc(NC(=O)C4CN(c5cccnn5)C4)cc3)CC2)cn1` [Example 378, N-(4-{1-[(5-methylpyrazin-2-yl)carbonyl]piperidin-4-yl}phenyl)-1-(pyridazin-3-yl)azetidine-3-carboxamide] returned an IC50 of 7.09 nM.

In turn, `CC1(C(=O)N2CCC(c3ccc(NC(=O)C4CN(c5cccnn5)C4)cc3)CC2)CC1` [Example 379, N-(4-{1-[(1-methylcyclopropyl)carbonyl]piperidin-4-yl}phenyl)-1-(pyridazin-3-yl)azetidine-3-carboxamide] gave an IC50 of 1.07 nM. The molecule `CCOCCC(=O)N1CCC(c2ccc(NC(=O)C3CN(c4cccnn4)C3)cc2)CC1` [Example 380, N-{4-[1-(3-ethoxypropanoyl)piperidin-4-yl]phenyl}-1-(pyridazin-3-yl)azetidine-3-carboxamide] displayed an IC50 of 7.57 nM.

Consider `O=C(Nc1ccc(C2CCN(C(=O)C3(c4ccccc4)CC3)CC2)cc1)C1CN(c2cccnn2)C1` [Example 381, N-(4-{1-[(1-phenylcyclopropyl)carbonyl]piperidin-4-yl}phenyl)-1-(pyridazin-3-yl)azetidine-3-carboxamide], for which the IC50 came out at 1.87 nM. `O=C(Nc1ccc(C2CCN(C(=O)CSc3ncccn3)CC2)cc1)C1CN(c2cccnn2)C1` [Example 382, 1-(pyridazin-3-yl)-N-(4-{1-[(pyrimidin-2-ylsulfanyl)acetyl]piperidin-4-yl}phenyl)azetidine-3-carboxamide] yielded an IC50 of 8.99 nM.

As to `CC(=O)N1CCC(C(=O)N2CCC(c3ccc(NC(=O)C4CN(c5cccnn5)C4)cc3)CC2)CC1` [Example 383, N-(4-{1-[(1-acetylpiperidin-4-yl)carbonyl]piperidin-4-yl}phenyl)-1-(pyridazin-3-yl)azetidine-3-carboxamide], the IC50 came out at 62.7 nM. For `O=C(Nc1ccc(C2CCN(C(=O)Cc3cc(F)cc(F)c3)CC2)cc1)C1CN(c2cccnn2)C1` [Example 384, N-(4-{1-[(3,5-difluorophenyl)acetyl]piperidin-4-yl}phenyl)-1-(pyridazin-3-yl)azetidine-3-carboxamide], inhibition was half-maximal at 8.27 nM (IC50). Take `CC(=O)N[C@@H](CC(C)C)C(=O)N1CCC(c2ccc(NC(=O)C3CN(c4cccnn4)C3)cc2)CC1` [Example 385, N-{4-[1-(N-acetyl-L-leucyl)piperidin-4-yl]phenyl}-1-(pyridazin-3-yl)azetidine-3-carboxamide]: the IC50 came to 23.2 nM. For the molecule `O=C(Nc1ccc(C2CCN(C(=O)C(c3ccccc3)c3ccccc3)CC2)cc1)C1CN(c2cccnn2)C1` [Example 386, N-{4-[1-(diphenylacetyl)piperidin-4-yl]phenyl}-1-(pyridazin-3-yl)azetidine-3-carboxamide], the IC50 came to 3.18 nM. Consider `Cc1c(F)cccc1C(=O)N1CCC(c2ccc(NC(=O)C3CN(c4cccnn4)C3)cc2)CC1` [Example 387, N-{4-[1-(3-fluoro-2-methylbenzoyl)piperidin-4-yl]phenyl}-1-(pyridazin-3-yl)azetidine-3-carboxamide], for which half-maximal inhibition (IC50) required 2.2 nM. Consider `Cc1ccc(F)cc1C(=O)N1CCC(c2ccc(NC(=O)C3CN(c4cccnn4)C3)cc2)CC1` [Example 388, N-{4-[1-(5-fluoro-2-methylbenzoyl)piperidin-4-yl]phenyl}-1-(pyridazin-3-yl)azetidine-3-carboxamide], for which it took 0.88 nM to reach half-maximal inhibition (IC50).

Turning to `Cc1ccc(C(=O)N2CCC(c3ccc(NC(=O)C4CN(c5cccnn5)C4)cc3)CC2)cc1F` [Example 389, N-{4-[1-(3-fluoro-4-methylbenzoyl)piperidin-4-yl]phenyl}-1-(pyridazin-3-yl)azetidine-3-carboxamide], 7.17 nM corresponded to half-maximal inhibition (IC50).

For the molecule `O=C(Nc1ccc(C2CCN(C(=O)c3cccc(F)c3F)CC2)cc1)C1CN(c2cccnn2)C1` [Example 390, N-{4-[1-(2,3-difluorobenzoyl)piperidin-4-yl]phenyl}-1-(pyridazin-3-yl)azetidine-3-carboxamide], the IC50 is 1.5 nM. In the case of `O=C(Nc1ccc(C2CCN(C(=O)c3ccc(F)cc3F)CC2)cc1)C1CN(c2cccnn2)C1` [Example 391, N-{4-[1-(2,4-difluorobenzoyl)piperidin-4-yl]phenyl}-1-(pyridazin-3-yl)azetidine-3-carboxamide] it was 5.99 nM.
